Values of other authors in patent US9848955B2, “Resorbable pouches for implantable medical devices” (TYRX Inc., priority 2006, dated 2017).

System: myofibroblast formation
Details: animal studies of capsular contracture with breast implants [Ajmal et al. (2003)]

In the case of `O=S(=O)([O-])CCS.[Na+]` [Mesna, sodium 2-mercaptoethane sulfonate], the myofibroblast formation is given as “diminish myofibroblast formation”.
